Values of other authors in patent US8410049B2, “Methods and kits for preventing hypoglycemia” (Cebix, priority 2009, dated 2013).

Conditions: in vivo; cited from earlier work

Row | Substance | Peak time of effect | Duration of activity | Onset of action
1 | Aspart | around 30 minutes |  | 
2 | Glargine insulin | no peak effect | 24 h | 
3 | Glulisine | around 30 minutes |  | 
4 | Lantus |  | up to 24 hours | 
5 | Lispro | around 30 minutes |  | 
6 | Regular insulin |  |  | 30 to 60 min
